We go through 27 compounds from US9670157B2, “Benzylamine derivatives” (KALVISTA PHARMACEUTICALS LIMITED, priority 2013, dated 2017).

Structures are written as SMILES. Like-named read-outs stand apart in the source and are kept apart here. Bounds are passed on as bounds.

One experiment deals with Human plasma kallikrein (Homo sapiens (Human), UniProt P03952). Briefly: Determination of the IC50 for Plasma Kallikrein. The class given is biochemical. As to conditions: read-out: IC50 (human PKal). Here is the method: Human plasma kallikrein (Protogen) was incubated at 37° C. with the fluorogenic substrate H-DPro-Phe-Arg-AFC and various concentrations of the test compound. Residual enzyme activity (initial rate of reaction) was determined by measuring the change in optical absorbance at 410 nm and the IC50 value for the test compound was determined.
Human plasma kallikrein, sequence (P03952 391-638): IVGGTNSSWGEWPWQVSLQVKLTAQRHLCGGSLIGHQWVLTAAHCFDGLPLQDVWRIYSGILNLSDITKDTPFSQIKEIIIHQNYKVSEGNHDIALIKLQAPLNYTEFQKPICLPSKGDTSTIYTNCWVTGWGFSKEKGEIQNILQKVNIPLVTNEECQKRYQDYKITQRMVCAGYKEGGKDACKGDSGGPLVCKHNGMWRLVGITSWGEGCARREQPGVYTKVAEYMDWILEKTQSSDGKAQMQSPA
Human plasma kallikrein, sequence (P03952 20-390 partner): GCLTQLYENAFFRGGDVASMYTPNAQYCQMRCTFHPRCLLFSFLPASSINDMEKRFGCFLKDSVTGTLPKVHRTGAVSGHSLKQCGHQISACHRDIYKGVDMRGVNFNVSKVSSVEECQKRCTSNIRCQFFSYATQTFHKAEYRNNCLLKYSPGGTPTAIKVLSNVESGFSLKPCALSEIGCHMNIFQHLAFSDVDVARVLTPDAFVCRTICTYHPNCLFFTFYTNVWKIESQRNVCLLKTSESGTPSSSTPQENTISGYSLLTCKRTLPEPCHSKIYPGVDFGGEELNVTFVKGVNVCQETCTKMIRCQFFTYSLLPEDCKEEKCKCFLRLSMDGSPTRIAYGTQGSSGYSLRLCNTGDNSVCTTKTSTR

Another experiment concerns the target Human KLK1 (Homo sapiens (Human), UniProt P06870). Briefly: Determination of the IC50 for KLK1. As to conditions: 37° C., fluorogenic substrate H-DVal-Leu-Arg-AFC. The class given is biochemical. Here is the method: KLK1 inhibitory activity in vitro was determined using standard published methods (see e.g. Johansen et al., Int. J. Tiss. Reac. 1986, 8, 185; Shori et al., Biochem. Pharmacol., 1992, 43, 1209; Stürzebecher et al., Biol. Chem. Hoppe-Seyler, 1992, 373, 1025). Human KLK1 (Callbiochem) was incubated at 37° C. with the fluorogenic substrate H-DVal-Leu-Arg-AFC and various concentrations of the test compound. Residual enzyme activity (initial rate of reaction) was determined by measuring the change in optical absorbance at 410 nm and the IC50 value for the test compound was determined.

Setting [1] is: 37° C., fluorogenic substrate H-DPro-Phe-Arg-AFC.

Human KLK1, sequence (P06870 25-262): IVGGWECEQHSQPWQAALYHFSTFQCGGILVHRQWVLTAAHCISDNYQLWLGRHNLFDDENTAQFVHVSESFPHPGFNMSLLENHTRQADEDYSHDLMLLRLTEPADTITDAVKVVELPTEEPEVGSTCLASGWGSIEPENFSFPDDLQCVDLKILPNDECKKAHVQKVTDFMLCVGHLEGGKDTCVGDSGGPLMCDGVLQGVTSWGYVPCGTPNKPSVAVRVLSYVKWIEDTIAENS

In the case of `Cc1cc(C(=O)NCc2ccc(CN)nc2)c(C)n1Cc1csc(-c2cccc(F)c2)n1` [Example 44, 1-[2-(3-Fluoro-phenyl)-thiazol-4-ylmethyl]-2,5-dimethyl-1H-pyrrole-3-carboxylic acid (6-aminomethyl-pyridin-3-ylmethyl)-amide], the concentration for half-maximal inhibition (IC50) is 355 nM on Human plasma kallikrein (setting [1]) and over 10 µM against Human KLK1.

For `Cc1cc(C(=O)NCc2ccc(CN)cc2)c(C)n1Cc1ccc(Cn2ccccc2=O)cc1` [Example 90, 2,5-Dimethyl-1-[4-(2-oxo-2H-pyridin-1-ylmethyl)-benzyl]-1H-pyrrole-3-carboxylic acid 4-aminomethyl-benzylamide], the results for the half-inhibitory concentration (IC50) at Human plasma kallikrein and against Human KLK1 were 114 nM and over 10 µM, respectively.

As for `Cc1cnn(Cc2ccc(Cn3c(C)cc(C(=O)NCc4ccc(C5(N)CC5)cc4)c3C)cc2)c1` [Example 98, 2,5-Dimethyl-1-[4-(4-methyl-pyrazol-1-ylmethyl)-benzyl]-1H-pyrrole-3-carboxylic acid 4-(1-amino-cyclopropyl)-benzylamide], the IC50 was 701 nM at Human plasma kallikrein (setting [1]) and over 10 µM at Human KLK1.

Regarding `Cc1cc(C(=O)NCc2ccc(CN)cc2)c(C)n1Cc1ccc(-c2ccccc2)s1` [Example 22, 2,5-Dimethyl-1-(5-phenyl-thiophen-2-ylmethyl)-1H-pyrrole-3-carboxylic acid 4-aminomethyl-benzylamide], the values for the IC50 on Human plasma kallikrein (setting [1]) and at Human KLK1 were 3270 nM and over 10 µM, respectively.

For the compound `CCn1c(C(=O)NCc2ccc(C3(N)CC3)cc2)cc(C)c1Cc1ccc(Cn2cc(C)cn2)cc1` [Example 100, 1-Ethyl-4-methyl-5-[4-(4-methyl-pyrazol-1-ylmethyl)-benzyl]-1H-pyrrole-2-carboxylic acid 4-(1-amino-cyclopropyl)-benzylamide], the IC50 is 2320 nM at Human plasma kallikrein (setting [1]) and over 10 µM against Human KLK1.

In the case of `Cc1cc(C(=O)NCc2ccc(CN)cc2)c(C)n1Cc1coc(-c2ccccc2)n1` [Example 18, 2,5-Methyl-1-(2-phenyl-oxazol-4-ylmethyl)-1H-pyrrole-3-carboxylic acid 4-aminomethyl-benzylamide], the IC50 is 435 nM on Human plasma kallikrein (setting [1]) and over 10 µM on Human KLK1.

With `Cc1cc(CNC(=O)c2cc(C)n(Cc3csc(-c4ccccc4)n3)c2C)ccc1CN` [Example 46, 2,5-Dimethyl-1-(2-phenyl-thiazol-4-ylmethyl)-1H-pyrrole-3-carboxylic acid 4-aminomethyl-3-methyl-benzylamide], the results for the IC50 on Human plasma kallikrein (setting [1]) and at Human KLK1 were 1160 nM and 4.89 µM, respectively.

For `Cc1cc(C(=O)NCc2ccc(CN)cc2)c(C)n1Cc1ccc(-c2ccccc2)cc1` [Example 70, 1-Biphenyl-4-ylmethyl-2,5-dimethyl-1H-pyrrole-3-carboxylic acid 4-aminomethyl-benzylamide], the IC50 is 4590 nM on Human plasma kallikrein (setting [1]) and over 10 µM against Human KLK1.

Turning to `Cc1cnn(Cc2ccc(Cn3cc(C(=O)NCc4ccc(CN)cc4)nn3)cc2)c1` [Example 108, 1-[4-(4-Methyl-pyrazol-1-ylmethyl)-benzyl]-1H-[1,2,3]triazole-4-carboxylic acid 4-aminomethyl-benzylamide], the values for the IC50 on Human plasma kallikrein (setting [1]) and on Human KLK1 were 33 nM and over 10 µM, respectively.

`Cc1cnn(Cc2ccc(Cn3cc(C(=O)NCc4c(C)cc(CN)cc4C)nn3)cc2)c1` [Example 113, 1-[4-(4-Methyl-pyrazol-1-ylmethyl)-benzyl]-1H-[1,2,3]triazole-4-carboxylic acid 4-aminomethyl-2,6-dimethyl-benzylamide]: the results for the IC50 on Human plasma kallikrein (setting [1]) and against Human KLK1 were 2 nM and over 10 µM, respectively.

With `Cc1cc(C(=O)NCc2ccc(CN)cc2)c(C)n1Cc1cccs1` [Example 20, 2,5-Dimethyl-1-thiophen-2-ylmethyl-1H-pyrrole-3-carboxylic acid 4-amidomethyl-benzylamide], the values for the IC50 on Human plasma kallikrein (setting [1]) and at Human KLK1 were 4950 nM and 2.4 µM, respectively.

As to `Cc1cc(C(=O)NCc2ccc(CN)cc2)c(C)n1Cc1ccc(C(N)=O)cc1` [Example 63, 1-(4-Carbamoyl-benzyl)-2,5-dimethyl-1H-pyrrole-3-carboxylic acid 4-aminomethyl-benzylamide], the IC50 on Human plasma kallikrein (setting [1]) was 7340 nM; against Human KLK1 it was over 10 µM.

For the compound `Cc1oc(-c2ccccc2)nc1Cn1c(C)cc(C(=O)NCc2ccc(CN)cc2)c1C` [Example 19, 2,5-Dimethyl-1-(5-methyl-2-phenyl-oxazol-4-ylmethyl)-1H-pyrrole-3-carboxylic acid 4-aminomethyl-benzylamide], the IC50 at Human plasma kallikrein (setting [1]) was 768 nM; against Human KLK1, over 10 µM.

For the compound `Cc1cc(C(=O)NCc2ccc(CN)cc2)c(C)n1Cc1nc2ccccc2s1` [Example 12, 1-Benzothiazol-2-ylmethyl-2,5-dimethyl-1H-pyrrole-3-carboxylic acid 4-aminomethyl-benzylamide], the IC50 at Human plasma kallikrein (setting [1]) is 5120 nM; on Human KLK1 it was over 10 µM.

`Cc1cc(C(=O)NCc2ccc(CN)cc2)c(C)n1Cc1cccc(N2CCCCC2)c1` [Example 74, 2,5-Dimethyl-1-(3-piperidin-1-yl-benzyl)-1H-pyrrole-3-carboxylic acid 4-aminomethyl-benzylamide]: the IC50 at Human plasma kallikrein (setting [1]) was 1580 nM; on Human KLK1 it was over 10 µM.

Take `CCn1c(C(=O)NCc2c(C)cc(CN)cc2C)cc(C)c1Cc1ccc(Cn2cc(C)cn2)cc1` [Example 102, 1-Ethyl-4-methyl-5-[4-(4-methyl-pyrazol-1-ylmethyl)-benzyl]-1H-pyrrole-2-carboxylic acid 4-aminomethyl-2,6-dimethyl-benzylamide]: the results for the IC50 on Human plasma kallikrein (setting [1]) and against Human KLK1 were 11 nM and 4.27 µM, respectively.

Regarding `Cc1cc(CN)cc(C)c1CNC(=O)c1cn(Cc2ccnc(N3CCCC3)c2)nc1C(F)(F)F` [Example 129, 1-(2-Pyrrolidin-1-yl-pyridin-4-ylmethyl)-3-trifluoromethyl-1H-pyrazole-4-carboxylic acid 4-aminomethyl-2,6-dimethyl-benzylamide], the IC50 was 24 nM at Human plasma kallikrein (setting [1]) and over 10 µM on Human KLK1.

On to `Cc1cnn(Cc2ccc(Cn3c(C)cc(C(=O)NCc4ccc(CN)cc4C)c3C)cc2)c1` [Example 97, 2,5-Dimethyl-1-[4-(4-methyl-pyrazol-1-ylmethyl)-benzyl]-1H-pyrrole-3-carboxylic acid 4-aminomethyl-2-methyl-benzylamide], for which the results for the IC50 at Human plasma kallikrein (setting [1]) and against Human KLK1 were 28 nM and over 10 µM, respectively.

Turning to `COc1cc(CN)ccc1CNC(=O)c1cc(C)n(Cc2csc(-c3ccccc3)n2)c1C` [Example 54, 2,5-Dimethyl-1-(2-phenyl-thiazol-4-ylmethyl)-1H-pyrrole-3-carboxylic acid 4-aminomethyl-2-methoxy-benzylamide], the values for the IC50 on Human plasma kallikrein (setting [1]) and on Human KLK1 were 30 nM and over 10 µM, respectively.

On to `Cc1ccc2cc(Cn3c(C)cc(C(=O)NCc4c(C)cc(CN)cc4C)c3C)ccc2n1` [Example 128, 2,5-Dimethyl-1-(2-methyl-quinolin-6-ylmethyl)-1H-pyrrole-3-carboxylic acid 4-aminomethyl-2,6-dimethyl-benzylamide], for which the IC50 was 934 nM on Human plasma kallikrein (setting [1]) and 2.66 µM against Human KLK1.

In the case of `Cc1cc(C(=O)N[C@H](C)c2ccc(CN)cc2)c(C)n1Cc1csc(-c2ccccc2)n1` [Example 42, 2,5-Dimethyl-1-(2-phenyl-thiazol-4-ylmethyl)-1H-pyrrole-3-carboxylic acid [(R)-1-(4-aminomethyl-phenyl)-ethyl]-amide], the figures for the half-maximal inhibitory concentration (IC50) on Human plasma kallikrein (setting [1]) and against Human KLK1 were 953 nM and over 10 µM, respectively.

As for `Cc1cnn(Cc2ccc(Cn3ncc(C(=O)NCc4c(C)cc(CN)cc4C)c3C)cc2)c1` [Example 115, 5-Methyl-1-[4-(4-methyl-pyrazol-1-ylmethyl)-benzyl]-1H-pyrazole-4-carboxylic acid 4-aminomethyl-2,6-dimethyl-benzylamide], the IC50 is 8 nM at Human plasma kallikrein (setting [1]) and over 10 µM at Human KLK1.

Take `Cc1cc(C(=O)NCc2ccc(CN)cc2)c(C)n1Cc1csc(-c2cccnc2)n1` [Example 31, 2,5-Dimethyl-1-(2-pyridin-3-yl-thiazol-4-ylmethyl)-1H-pyrrole-3-carboxylic acid 4-aminomethyl-benzylamide]: the IC50 at Human plasma kallikrein (setting [1]) is 251 nM; at Human KLK1, 8.08 µM.

On to `Cc1cnn(Cc2ccc(Cn3cc(C(=O)NCc4ccc(CN)cc4)cn3)cc2)c1` [Example 85, 1-[4-(4-Methyl-pyrazol-1-ylmethyl)-benzyl]-1H-pyrazole-4-carboxylic acid 4-aminomethyl-benzylamide], for which the figures for the IC50 on Human plasma kallikrein and at Human KLK1 were 11 nM and over 8.51 µM, respectively.

`Cc1cnn(Cc2ccc(Cn3cc(C(=O)NCc4c(C)cc(CN)cc4C)cn3)cc2)c1` [Example 111, 1-[4-(4-Methyl-pyrazol-1-ylmethyl)-benzyl]-1H-pyrazole-4-carboxylic acid 4-aminomethyl-2,6-dimethyl-benzylamide]: the figures for the IC50 at Human plasma kallikrein (setting [1]) and at Human KLK1 were 1 nM and over 10 µM, respectively.

For the compound `CCn1c(C(=O)NCc2ccc(CN)cc2C)cc(C)c1Cc1ccc(Cn2ccccc2=O)cc1` [Example 92, 1-Ethyl-4-methyl-5-[4-(2-oxo-2H-pyridin-1-ylmethyl)-benzyl]-1H-pyrrole-2-carboxylic acid 4-aminomethyl-2-methyl-benzylamide], the figures for the IC50 on Human plasma kallikrein (setting [1]) and on Human KLK1 were 40 nM and 10 µM, respectively.

As to `Cc1cc(C(=O)NCc2ccc(CN)cc2)c(C)n1Cc1csc(-c2cccnc2)c1` [Example 8, 2,5-Dimethyl-1-(5-pyridin-3-yl-thiophen-3-ylmethyl)-1H-pyrrole-3-carboxylic acid 4-aminomethyl-benzylamide], the results for the IC50 on Human plasma kallikrein (setting [1]) and against Human KLK1 were 348 nM and 6.36 µM, respectively.
